SMILES strings stand for the structures. Where a name gives a salt, the structure may show the parent alone.

For one series the following is noted: [M+H-H2O]+; instrument: TW; calibrated with polyalanine and drug standards.
Regarding `CC(C)CCC[C@@H](C)[C@H]1CC[C@H]2C3=CC[C@H]4C[C@@H](O)CC[C@]4(C)[C@H]3CC[C@]12C` [LATHOSTEROL], the “collision cross section (N2)” value turned out to be 204 Å².
On the same count and under the same terms, the figure for `COC(=O)C1=C(C)NC(C)=C(C(=O)OC)C1c1ccccc1[N+](=O)[O-]` [NIFEDIPINE] is 169.4 Å².

The series is the same for the next values; noted with them: [M+H]+; instrument: TW; calibrated with polyalanine and drug standards.
As for `COc1cc2c(cc1OC)[C@@H]1C(=O)c3ccc4oc(C(C)C)cc4c3O[C@@H]1CO2` [ISOROTENONE], the “collision cross section (N2)” value came out at 195.2 Å².
Consider `O=[N+]([O-])O[C@H]1CO[C@H]2[C@@H]1OC[C@H]2O[N+](=O)[O-]` [ISOSORBIDE DINITRATE], for which the “collision cross section (N2)” value is on record as 151.6 Å².
The same measure, in the same setting: for `Cc1cc(NC(=O)C2=C(O)c3ccccc3S(=O)(=O)N2C)no1` [ISOXICAM] the value was 170.8 Å².
Still for that read-out and setting: the figure for `CC(=O)N1CCN(c2ccc(OC[C@H]3CO[C@](Cn4ccnc4)(c4ccc(Cl)cc4Cl)O3)cc2)CC1` [KETOCONAZOLE] is 214.5 Å².
On the same count and under the same terms, the figure for `OC[C@H]1O[C@@H](n2cnc3c(NCc4ccco4)ncnc32)[C@H](O)[C@@H]1O` [KINETIN RIBOSIDE] is 179 Å²; for `c1coc(CNc2ncnc3nc[nH]c23)c1` [KINETIN] it is 144.1 Å².
As for `Nc1nnc(-c2cccc(Cl)c2Cl)c(N)n1` [LAMOTRIGINE], the “collision cross section (N2)” value stood at 150.6 Å².
On to `Cc1c(OCC(F)(F)F)ccnc1CS(=O)c1nc2ccccc2[nH]1` (stereo not drawn) [LANSOPRAZOLE], for which the “collision cross section (N2)” value is 185.8 Å².
Same read-out and setting: the figure for `NCCCC[C@H](N[C@@H](CCc1ccccc1)C(=O)O)C(=O)N1CCC[C@H]1C(=O)O` [LISINOPRIL] is 189.7 Å².
The same measure, in the same setting: the figure for `CCCCc1nc(Cl)c(CO)n1Cc1ccc(-c2ccccc2-c2nn[nH]n2)cc1` [LOSARTAN] is 199.2 Å²; for `Cc1cccc(Nc2ccccc2C(=O)O)c1C` [MEFENAMIC ACID] it is 153.3 Å²; for `N[C@@H](Cc1ccc(N(CCCl)CCCl)cc1)C(=O)O` [MELPHALAN] it is 168.7 Å².
In the case of `S=c1nc[nH]c2nc[nH]c12` [MERCAPTOPURINE], the “collision cross section (N2)” value is 125.5 Å².
As to `CC(=O)Nc1cccc(O)c1` [METACETAMOL], the “collision cross section (N2)” value worked out at 130.6 Å².
Still for that read-out and setting: for `COc1cc2c(cc1OC)C(=O)OC2` [METAMECONINE] the value was 137.6 Å².
The same measure, in the same setting: the figure for `CC(C)NCC(O)c1cc(O)cc(O)c1` (stereo not drawn) [METAPROTERENOL] is 149.9 Å².
As to `COc1c2c(cc3occ(-c4ccc5c(c4)OCO5)c(=O)c13)OC(C)(C)C=C2` [METHYL ROBUSTONE], the “collision cross section (N2)” value stood at 186.9 Å².
Consider `C[C@H]1C[C@@H]2[C@H]([C@@H](O)C[C@@]3(C)[C@H]2CC[C@]3(O)C(=O)CO)[C@@]2(C)C=CC(=O)C=C12` [METHYLPREDNISOLONE], for which the “collision cross section (N2)” value turned out to be 187.7 Å².
Regarding `COCCc1ccc(OCC(O)CNC(C)C)cc1` (stereo not drawn) [METOPROLOL], the “collision cross section (N2)” value is given as 170.7 Å².
As to `OCCN1C[C@H](O)[C@@H](O)[C@H](O)[C@H]1CO` [MIGLITOL], the “collision cross section (N2)” value is listed as 141 Å².
On the same count and under the same terms, the figure for `N=c1nc(N2CCCCC2)cc(N)n1O` [MINOXIDIL] is 146.1 Å².
On the same count and under the same terms, for `CO[C@@]12[C@H](COC(N)=O)C3=C(C(=O)C(C)=C(N)C3=O)N1C[C@@H]1N[C@@H]12` [MITOMYCIN C] the value was 169.5 Å²; for `C[C@H]1C(=O)O[C@@H]2CCN3CC=C(COC(=O)[C@](C)(O)[C@]1(C)O)[C@H]23` [MONOCROTALINE], 172.9 Å².
For the compound `O=c1c(O)c(-c2ccc(O)cc2O)oc2cc(O)cc(O)c12` [MORIN], the “collision cross section (N2)” value worked out at 162.7 Å².
With `COc1ccc2c(c1)O[C@@H]1COc3cc(OC)c(OC)cc3[C@@H]1C2=O` [MUNDOSERONE], the “collision cross section (N2)” value is 175.1 Å².
Still for that read-out and setting: the figure for `COc1c(-c2coc3cc4c(cc3c2=O)CC(OC(C)=O)C(C)(C)O4)ccc2c1C=CC(C)(C)O2` (stereo not drawn) [MUNDULONE ACETATE] is 222.7 Å².
The same measure, in the same setting: the figure for `COc1c(-c2coc3cc4c(cc3c2=O)CC(O)C(C)(C)O4)ccc2c1C=CC(C)(C)O2` (stereo not drawn) [MUNDULONE] is 210.9 Å².
With `C/C(=C\C(=O)OCCCCCCCCC(=O)O)C[C@@H]1OC[C@H](C[C@@H]2O[C@H]2[C@@H](C)[C@H](C)O)[C@@H](O)[C@H]1O` [MUPIROCIN], the “collision cross section (N2)” value is 214.8 Å².
On to `O=C(O)c1ccccc1Nc1ccccc1` [N-PHENYLANTHRANILIC ACID], for which the “collision cross section (N2)” value turned out to be 144.5 Å².
In the case of `COc1ccc2cc(CCC(C)=O)ccc2c1` [NABUMETONE], the “collision cross section (N2)” value came out at 148 Å².
The same measure, in the same setting: the figure for `NC(=O)c1ccc[n+]([C@@H]2O[C@H](COP(=O)([O-])OP(=O)(O)OC[C@H]3O[C@@H](n4cnc5c(N)ncnc54)[C@H](O)[C@@H]3O)[C@@H](O)[C@H]2O)c1` [NADIDE] is 227 Å²; for `COc1ccc2cc([C@H](C)CO)ccc2c1` [NAPROXOL] it is 140 Å².
Turning to `O=C1CC(c2ccc(O)cc2)Oc2cc(O)cc(O)c21` (stereo not drawn) [NARINGENIN], the “collision cross section (N2)” value worked out at 160.6 Å².
On the same count and under the same terms, for `CC(C)C1CCC(C(=O)N[C@H](Cc2ccccc2)C(=O)O)CC1` (stereo partly drawn) [NATEGLINIDE] the value was 178.6 Å²; for `O=C(O)c1cccnc1` [NIACIN], 120.3 Å².
Same read-out and setting: the figure for `O=C(CCNNC(=O)c1ccncc1)NCc1ccccc1` [NIALAMIDE] is 174.3 Å².
The same measure, in the same setting: the figure for `CO[C@]12C[C@@H](COC(=O)c3cncc(Br)c3)CN(C)[C@@H]1Cc1cn(C)c3cccc2c13` [NICERGOLINE] is 213.8 Å²; for `O=C(O)c1cccnc1Nc1cccc(C(F)(F)F)c1` [NIFLUMIC ACID] it is 159.4 Å².
Consider `O=C(O)C1CCCNC1` (stereo not drawn) [NIPECOTIC ACID], for which the “collision cross section (N2)” value worked out at 124.6 Å².
The same measure, in the same setting: for `COC(=O)C1=C(C)NC(C)=C(C(=O)OCC(C)C)C1c1ccccc1[N+](=O)[O-]` (stereo not drawn) [NISOLDIPINE] the value was 187.2 Å².
Turning to `CN/C(=C\[N+](=O)[O-])NCCSCc1csc(CN(C)C)n1` [NIZATIDINE], the “collision cross section (N2)” value is recorded as 169.1 Å².
Take `COC(=O)Nc1nc2ccc(C(=O)c3cccs3)cc2[nH]1` [NOCODAZOLE]: the “collision cross section (N2)” value was determined as 168.7 Å².
Regarding `C#C[C@]1(O)CC[C@H]2[C@@H]3CCC4=C(CCC(=O)C4)[C@H]3CC[C@@]21C` [NORETHYNODREL], the “collision cross section (N2)” value was determined as 174.6 Å².
Turning to `c1ccc2c(c1)[nH]c1cnccc12` [NORHARMAN], the “collision cross section (N2)” value amounted to 132.2 Å².
Consider `N[C@@H](COCc1ccccc1)C(=O)O` [O-BENZYL-l-SERINE], for which the “collision cross section (N2)” value was determined as 142.5 Å².
The same measure, in the same setting: the figure for `COC1=CC(=O)C(O)=C/C1=C\C=C\c1ccccc1` [OBTUSAQUINONE] is 155.1 Å²; for `CC(C)CCCC(C)N` (stereo not drawn) [OCTODRINE] it is 134.7 Å².
For `CCCc1nc(C(C)(C)O)c(C(=O)OCc2oc(=O)oc2C)n1Cc1ccc(-c2ccccc2-c2nn[nH]n2)cc1` [OLMESARTAN MEDOXOMIL], the “collision cross section (N2)” value stood at 225 Å².
On to `CC(C)=CCc1c2c(c3occ(-c4ccc(O)cc4)c(=O)c3c1O)C=CC(C)(C)O2` [OSAJIN], for which the “collision cross section (N2)” value is listed as 201.4 Å².
On the same count and under the same terms, the figure for `CCOC(=O)C1=C[C@@H](OC(CC)CC)[C@H](NC(C)=O)[C@@H](N)C1` [OSELTAMIVIR] is 180.7 Å²; for `COC[C@]12CN(C=O)C3[C@@H]4[C@H](OC)C1[C@]3(C1CC3(O)C(OC)C(O)C4(OC(C)=O)C1C3OC(=O)c1ccccc1)[C@@H](OC)C[C@H]2O` (stereo partly drawn) [OXONITINE] it is 236.2 Å²; for `COc1ccc(C(=O)c2ccccc2)c(O)c1` [OXYBENZONE] it is 146.5 Å².
Same read-out and setting: for `CCCCC1C(=O)N(c2ccccc2)N(c2ccc(O)cc2)C1=O` (stereo not drawn) [OXYPHENBUTAZONE] the value was 177.2 Å²; for `COc1ccc(C(C)=O)c(O)c1` [PAEONOL], 124.9 Å²; for `CC(C)(CO)[C@@H](O)C(=O)NCCC(=O)NCCSSCCNC(=O)CCNC(=O)[C@H](O)C(C)(C)CO` [PANTETHINE], 222.5 Å².
Consider `CC(C)(CO)[C@@H](O)C(=O)NCCC(=O)[O-]` [PANTOTHENIC ACID(d) Na salt], for which the “collision cross section (N2)” value came to 146.7 Å².

The series is the same for the next values; noted with them: [M+Na]+; instrument: TW; calibrated with polyalanine and drug standards.
As to `CC[C@H](C)[C@H]1O[C@]2(CC[C@@H]1C)C[C@@H]1C[C@@H](C/C=C(\C)[C@@H](O[C@H]3C[C@H](OC)[C@@H](O[C@H]4C[C@H](OC)[C@@H](O)[C@H](C)O4)[C@H](C)O3)[C@@H](C)/C=C/C=C3\CO[C@@H]4[C@H](O)C(C)=C[C@@H](C(=O)O1)[C@]34O)O2` [IVERMECTIN], the “collision cross section (N2)” value is given as 292.7 Å².
Regarding `C[C@H]1[C@H](C)CC[C@]2(C(=O)O)CC[C@]3(C)C(=CC[C@@H]4[C@@]5(C)C[C@@H](O)[C@H](O)[C@@](C)(CO)[C@@H]5[C@H](O)C[C@]43C)[C@H]12` [MADECASSIC ACID], the “collision cross section (N2)” value was 234.8 Å².
As for `CCOC(=O)CC(SP(=S)(OC)OC)C(=O)OCC` (stereo not drawn) [MALATHION], the “collision cross section (N2)” value stood at 171.5 Å².
The same measure, in the same setting: the figure for `CC[C@@]1([C@@H]2O[C@@H]([C@H]3O[C@@](O)(CO)[C@H](C)C[C@@H]3C)C[C@@H]2C)CC[C@H]([C@]2(C)CC[C@]3(C[C@H](O)[C@@H](C)[C@@H]([C@@H](C)[C@@H](OC)[C@H](C)C(=O)O)O3)O2)O1` [MONENSIN] is 245.1 Å².
Take `C[C@@H]1O[C@@H](O[C@H]2[C@H](Oc3cc(O)c4c(c3)O[C@H](c3ccc(O)cc3)CC4=O)O[C@H](CO)[C@@H](O)[C@@H]2O)[C@H](O)[C@H](O)[C@H]1O` [NARINGIN]: the “collision cross section (N2)” value turned out to be 233.5 Å².
